Laboratory results published in ChEMBL document CHEMBL1201862, “PubChem BioAssay data set” (2004).
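Tested at 5 concentrations; 48 h exposure; 96-well plates; endpoints linearly interpolated, else capped at highest concentration. GI50 is the concentration that inhibits growth by half.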 The source made the active and inactive calls. Rule as the data show it: active = GI50 up to about 1.1 µM and inactive = higher.

How the values were obtained:
Test in all cases: DTP human tumour cell line panel, 48 h
EKVX = system: EKVX
KM12 = system: KM12
NCI-H226 = system: NCI-H226
HCT-116 = system: HCT-116
SK-MEL-28 = system: SK-MEL-28
A549 = system: A549
OVCAR-5 = system: OVCAR-5
OVCAR-4 = system: OVCAR-4
Malme-3M = system: Malme-3M
NCI-H522 = system: NCI-H522
SF-268 = system: SF-268
HCC 2998 = system: HCC 2998
HCT-15 = system: HCT-15
U-251 = system: U-251
UO-31 = system: UO-31
HOP-62 = system: HOP-62
OVCAR-3 = system: OVCAR-3

SMILES	GI50 (EKVX)	GI50 (KM12)	GI50 (NCI-H226)	GI50 (HCT-116)	GI50 (SK-MEL-28)	GI50 (A549)	GI50 (OVCAR-5)	GI50 (OVCAR-4)	GI50 (Malme-3M)	GI50 (NCI-H522)	GI50 (SF-268)	GI50 (HCC 2998)	GI50 (HCT-15) [µM]	GI50 (U-251)	GI50 (UO-31)	GI50 (HOP-62)	GI50 (OVCAR-3)
CCOC(=O)/C(=C/c1ccco1)P(=O)(OCC)OCC	> 100 µM (inactive)	> 100 µM (inactive)	> 100 µM (inactive)	> 100 µM (inactive)	> 100 µM (inactive)	> 100 µM (inactive)	> 100 µM (inactive)	> 100 µM (inactive)	> 100 µM (inactive)	> 100 µM (inactive)	> 100 µM (inactive)	> 100 µM (inactive)	> 100	> 100 µM (inactive)	> 100 µM (inactive)	–	–
CC(=O)c1ccc(OCC(O)CO)cc1 (configuration not stated)	> 100 µM (inactive)	> 100 µM (inactive)	> 100 µM (inactive)	17.3 µM (inactive)	> 100 µM (inactive)	94.2 µM (inactive)	> 100 µM (inactive)	> 100 µM (inactive)	> 100 µM (inactive)	> 100 µM (inactive)	> 100 µM (inactive)	> 100 µM (inactive)	> 100	49.8 µM (inactive)	> 100 µM (inactive)	> 100 µM (inactive)	> 100 µM (inactive)
NCc1ccccc1C1CSCSC1	–	> 100 µM (inactive)	> 100 µM (inactive)	> 100 µM (inactive)	> 100 µM (inactive)	> 100 µM (inactive)	–	> 100 µM (inactive)	> 100 µM (inactive)	> 100 µM (inactive)	> 100 µM (inactive)	–	> 100	> 100 µM (inactive)	> 100 µM (inactive)	–	> 100 µM (inactive)
CCOC(=O)[N-]c1ccc(S(=O)(=O)[O+](C)CCl)cc1.CCOC(=O)[N-]c1ccc(S(=O)(=O)[O+](C)CCl)cc1.NC(=O)N=O.NC(=O)OCCCl	–	> 100 µM (inactive)	–	> 100 µM (inactive)	> 100 µM (inactive)	> 100 µM (inactive)	> 100 µM (inactive)	–	> 100 µM (inactive)	–	> 100 µM (inactive)	> 100 µM (inactive)	> 100	> 100 µM (inactive)	> 100 µM (inactive)	> 100 µM (inactive)	–
Nc1ccc(N)c2c1C(=O)c1ccccc1C2=O	87.5 µM (inactive)	4.54 µM (inactive)	> 100 µM (inactive)	11.1 µM (inactive)	> 100 µM (inactive)	24.4 µM (inactive)	> 100 µM (inactive)	> 100 µM (inactive)	24 µM (inactive)	9.48 µM (inactive)	51.3 µM (inactive)	3.97 µM (inactive)	4.41	17.3 µM (inactive)	12.4 µM (inactive)	5.01 µM (inactive)	43.9 µM (inactive)
Cc1ccc(C)c(NC(=O)C(=O)CC(=O)C2CCOC2=O)c1 (configuration not stated)	> 100 µM (inactive)	> 100 µM (inactive)	> 100 µM (inactive)	> 100 µM (inactive)	28.5 µM (inactive)	> 100 µM (inactive)	> 100 µM (inactive)	> 100 µM (inactive)	> 100 µM (inactive)	> 100 µM (inactive)	> 100 µM (inactive)	–	> 100	> 100 µM (inactive)	> 100 µM (inactive)	> 100 µM (inactive)	> 100 µM (inactive)
CCCCCCCCOCC(O)COC(=O)CCCCCCC (configuration not stated)	–	–	> 100 µM (inactive)	> 100 µM (inactive)	> 100 µM (inactive)	> 100 µM (inactive)	> 100 µM (inactive)	34.4 µM (inactive)	> 100 µM (inactive)	–	95.5 µM (inactive)	30.7 µM (inactive)	> 100	> 100 µM (inactive)	> 100 µM (inactive)	> 100 µM (inactive)	18.3 µM (inactive)
Oc1cc(-c2ccc(Oc3ccccc3)cc2)nc2cc3c(cc12)OCO3	> 100 µM (inactive)	–	27.5 µM (inactive)	> 100 µM (inactive)	> 100 µM (inactive)	> 100 µM (inactive)	–	> 100 µM (inactive)	> 100 µM (inactive)	–	> 100 µM (inactive)	> 100 µM (inactive)	> 100	> 100 µM (inactive)	> 100 µM (inactive)	> 100 µM (inactive)	> 100 µM (inactive)
CCOC(=O)C12CCC(=O)C=C1[C@@H](C)C(=O)CC2 (some centres not stated)	> 100 µM (inactive)	> 100 µM (inactive)	> 100 µM (inactive)	> 100 µM (inactive)	> 100 µM (inactive)	–	> 100 µM (inactive)	–	> 100 µM (inactive)	–	> 100 µM (inactive)	> 100 µM (inactive)	> 100	> 100 µM (inactive)	> 100 µM (inactive)	> 100 µM (inactive)	> 100 µM (inactive)
COC(=O)C(CC(=O)c1cc2c(cc1I)OCO2)Cc1cc(OC)c(OC)c(OC)c1I (configuration not stated)	> 100 µM (inactive)	71.6 µM (inactive)	> 100 µM (inactive)	19.2 µM (inactive)	> 100 µM (inactive)	> 100 µM (inactive)	2.88 µM (inactive)	–	> 100 µM (inactive)	9.06 µM (inactive)	> 100 µM (inactive)	> 100 µM (inactive)	> 100	65.6 µM (inactive)	–	> 100 µM (inactive)	7.21 µM (inactive)
NS(=O)(=O)c1ccc(NC(=O)C2C(=O)C(=O)N(c3ccc(S(N)(=O)=O)cc3)C2=O)cc1 (configuration not stated)	> 100 µM (inactive)	–	> 100 µM (inactive)	> 100 µM (inactive)	> 100 µM (inactive)	> 100 µM (inactive)	> 100 µM (inactive)	> 100 µM (inactive)	> 100 µM (inactive)	> 100 µM (inactive)	> 100 µM (inactive)	> 100 µM (inactive)	> 100	> 100 µM (inactive)	> 100 µM (inactive)	> 100 µM (inactive)	> 100 µM (inactive)
O=C(c1ccco1)c1ccccc1C(=O)c1ccco1	> 100 µM (inactive)	> 100 µM (inactive)	> 100 µM (inactive)	> 100 µM (inactive)	> 100 µM (inactive)	> 100 µM (inactive)	> 100 µM (inactive)	> 100 µM (inactive)	> 100 µM (inactive)	–	> 100 µM (inactive)	> 100 µM (inactive)	> 100	> 100 µM (inactive)	> 100 µM (inactive)	> 100 µM (inactive)	> 100 µM (inactive)
Cc1nc(O)nc2c1C(NCCCN(C)C)c1cc(Cl)ccc1N2 (configuration not stated)	16.3 µM (inactive)	16 µM (inactive)	16.6 µM (inactive)	15 µM (inactive)	14 µM (inactive)	13.9 µM (inactive)	–	–	16.7 µM (inactive)	15.2 µM (inactive)	16.2 µM (inactive)	16.3 µM (inactive)	–	15.9 µM (inactive)	13.6 µM (inactive)	14.6 µM (inactive)	17.4 µM (inactive)
COC(=O)CC(=O)OSc1ccccc1	17.6 µM (inactive)	25.5 µM (inactive)	24.6 µM (inactive)	12.9 µM (inactive)	–	12.5 µM (inactive)	45 µM (inactive)	28.6 µM (inactive)	42.4 µM (inactive)	1.61 µM (inactive)	–	28.1 µM (inactive)	–	3.48 µM (inactive)	12.2 µM (inactive)	22.4 µM (inactive)	14.6 µM (inactive)
CC1=C(C(=O)NCc2ccccc2)C(c2ccc(N(C)C)cc2)C(C(=O)NCc2ccccc2)=C(C)N1	> 100 µM (inactive)	> 100 µM (inactive)	> 100 µM (inactive)	> 100 µM (inactive)	> 100 µM (inactive)	> 100 µM (inactive)	> 100 µM (inactive)	> 100 µM (inactive)	> 100 µM (inactive)	77.8 µM (inactive)	–	> 100 µM (inactive)	–	> 100 µM (inactive)	> 100 µM (inactive)	> 100 µM (inactive)	> 100 µM (inactive)
CC(=O)c1ccc(NC(=O)/C(=N\NC(N)=O)C(C#N)CC(C)(C)C=O)cc1 (configuration not stated)	> 100 µM (inactive)	> 100 µM (inactive)	> 100 µM (inactive)	> 100 µM (inactive)	> 100 µM (inactive)	> 100 µM (inactive)	> 100 µM (inactive)	> 100 µM (inactive)	–	> 100 µM (inactive)	> 100 µM (inactive)	> 100 µM (inactive)	> 100	> 100 µM (inactive)	> 100 µM (inactive)	> 100 µM (inactive)	–
Cc1cccc(C)c1NC(=O)CCc1nnc(S)[nH]1	> 100 µM (inactive)	–	> 100 µM (inactive)	> 100 µM (inactive)	> 100 µM (inactive)	> 100 µM (inactive)	> 100 µM (inactive)	> 100 µM (inactive)	> 100 µM (inactive)	> 100 µM (inactive)	> 100 µM (inactive)	> 100 µM (inactive)	> 100	> 100 µM (inactive)	> 100 µM (inactive)	> 100 µM (inactive)	–
O=C(CC1(O)C(=O)Nc2ccccc21)c1ccc2ccccc2c1 (configuration not stated)	> 100 µM (inactive)	–	29.2 µM (inactive)	> 100 µM (inactive)	> 100 µM (inactive)	> 100 µM (inactive)	> 100 µM (inactive)	> 100 µM (inactive)	> 100 µM (inactive)	99.5 µM (inactive)	> 100 µM (inactive)	> 100 µM (inactive)	> 100	–	44.7 µM (inactive)	> 100 µM (inactive)	> 100 µM (inactive)
O=C1c2ccccc2C2(O)NC(=S)N(c3ccccc3)C12O (configuration not stated)	> 100 µM (inactive)	> 100 µM (inactive)	–	> 100 µM (inactive)	> 100 µM (inactive)	> 100 µM (inactive)	> 100 µM (inactive)	> 100 µM (inactive)	> 100 µM (inactive)	> 100 µM (inactive)	> 100 µM (inactive)	> 100 µM (inactive)	> 100	> 100 µM (inactive)	> 100 µM (inactive)	–	> 100 µM (inactive)
